Laboratory results taken from patent US10865208B2, “ATG7 inhibitors and the uses thereof” (Millennium Pharmaceuticals, Inc., priority 2016, dated 2020).

Biological target: recombinant human His-ATG7 enzyme (Homo sapiens (Human), UniProt O95352)
Test: ATG7 Enzyme Assay (HTRF/FRET, ATG3-GST and Flag-Gabarap)
Type: biochemical
Conditions: for inhibition at 0.123 µM: Concentration 0.123 μM
Experimental: Example 97: ATG7 Enzyme Assay
The total volume of the ATG7 enzymatic assay is 50 μL and contains 50 mM HEPES Hemisodium (pH 7.5), 0.05% BSA, 0.01% Tween-20, 25 mM NaCl, 5 mM MgCl2, 10 μM ATP, 250 μM GSH, 5 nM ATG3-GST, 5 nM Flag-Gabarap, 100 μM TCEP and 0.15 nM recombinant human His-ATG7 enzyme. The enzymatic reaction mixture, with and without inhibitor, was incubated at 24° C. for 105 min in a 384-well plate before termination with […] of Stop/Detection buffer (0.1M HEPES Hemisodium pH 7.5, 0.05% Tween20, 20 mM EDTA, 410 mM KF, 0.53 nM Europium-Cryptate labeled monoclonal anti-Flag M2 Antibody (CisBio International) and 8.125 μg/ml PHYCOLINK goat anti-GST allophycocyanin (XL-APC) antibody (Prozyme)). After incubation for 2 hours at 24° C., quantification of FRET is performed on the Pherostar™ (BMG Labtech). Percentage inhibition values at a single concentration or enzyme inhibition (IC50) values are determined from those curves. One skilled in the art will appreciate that the values generated either as percentage inhibition at a single concentration or IC50 values are subject to experimental variation.

Chain of recombinant human His-ATG7 enzyme (O95352 whole entry): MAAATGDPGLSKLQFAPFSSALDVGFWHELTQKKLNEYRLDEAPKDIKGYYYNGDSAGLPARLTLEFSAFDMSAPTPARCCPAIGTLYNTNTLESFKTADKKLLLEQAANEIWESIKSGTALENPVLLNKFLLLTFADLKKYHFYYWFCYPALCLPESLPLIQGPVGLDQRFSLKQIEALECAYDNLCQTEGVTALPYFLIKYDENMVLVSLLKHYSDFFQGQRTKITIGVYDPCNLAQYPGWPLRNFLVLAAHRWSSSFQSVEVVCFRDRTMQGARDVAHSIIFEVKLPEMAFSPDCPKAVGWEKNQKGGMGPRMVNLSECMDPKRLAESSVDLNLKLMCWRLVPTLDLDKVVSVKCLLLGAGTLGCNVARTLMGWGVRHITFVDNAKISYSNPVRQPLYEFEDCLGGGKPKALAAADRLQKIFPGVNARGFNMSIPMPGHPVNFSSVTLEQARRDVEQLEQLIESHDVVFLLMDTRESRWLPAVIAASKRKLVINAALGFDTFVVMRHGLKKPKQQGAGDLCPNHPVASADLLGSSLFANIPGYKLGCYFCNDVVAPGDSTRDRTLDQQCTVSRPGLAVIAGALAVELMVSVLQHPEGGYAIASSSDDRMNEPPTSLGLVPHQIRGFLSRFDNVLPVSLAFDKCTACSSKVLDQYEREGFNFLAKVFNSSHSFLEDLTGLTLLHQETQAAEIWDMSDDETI

SMILES | IC50 [nM] | inhibition at 0.123 µM (read-out: Percent Inhibition) [%] | inhibition at 0.111 µM (Concentration 0.111 μM, read-out: Percent Inhibition) [%] | inhibition at 0.069 µM (Concentration 0.069 μM, read-out: Percent Inhibition) [%]
C=Cc1nn([C@@H]2O[C@H](COS(N)(=O)=O)[C@@H](O)[C@H]2O)c2ncnc(N)c12 [Compound I-18, [(2R,3S,4R,5R)-5-(4-amino-3-vinyl-1H-pyrazolo[3,4-d]pyrimidin-1-yl)-3,4-dihydroxytetrahydrofuran-2-yl]methyl Sulfamate] | 50 to 100 | 62 | – | –
COCc1nn([C@@H]2O[C@H](COS(N)(=O)=O)[C@@H](O)[C@H]2O)c2ncnc(N)c12 [Compound I-19, {(2R,3S,4R,5R)-5-[4-amino-3-(methoxymethyl)-1H-pyrazolo[3,4-d]pyrimidin-1-yl]-3,4-dihydroxytetrahydrofuran-2-yl}methyl Sulfamate] | 100 to 500 | 32 | – | –
CC(=O)c1nn([C@@H]2O[C@H](COS(N)(=O)=O)[C@@H](O)[C@H]2O)c2ncnc(N)c12 [Compound I-21, [(2R,3S,4R,5R)-5-(3-acetyl-4-amino-1H-pyrazolo[3,4-d]pyrimidin-1-yl)-3,4-dihydroxytetrahydrofuran-2-yl]methyl Sulfamate] | 100 to 500 | 22 | – | –
CC(C)(O)c1nn([C@@H]2O[C@H](COS(N)(=O)=O)[C@@H](O)[C@H]2O)c2ncnc(N)c12 [Compound I-24, {(2R,3S,4R,5R)-5-[4-amino-3-(2-hydroxypropan-2-yl)-1H-pyrazolo[3,4-d]pyrimidin-1-yl]-3,4-dihydroxytetrahydrofuran-2-yl}methyl Sulfamate] | > 500 | 11 | – | –
Nc1ncnc2c1c(C(F)F)nn2[C@@H]1O[C@H](COS(N)(=O)=O)[C@@H](O)[C@H]1O [Compound I-25, {(2R,3S,4R,5R)-5-[4-amino-3-(difluoromethyl)-1H-pyrazolo[3,4-d]pyrimidin-1-yl]-3,4-dihydroxytetrahydrofuran-2-yl}methyl Sulfamate] | 50 to 100 | 64 | – | –
Nc1ncnc2c1c(C1CC1)nn2[C@@H]1O[C@H](COS(N)(=O)=O)[C@@H](O)[C@H]1O [Compound I-26, [(2R,3S,4R,5R)-5-(4-amino-3-cyclopropyl-1H-pyrazolo[3,4-d]pyrimidin-1-yl)-3,4-dihydroxytetrahydrofuran-2-yl]methyl Sulfamate] | 50 to 100 | 53 | – | –
Nc1ncnc2c1c(OC(F)F)nn2[C@@H]1O[C@H](COS(N)(=O)=O)[C@@H](O)[C@H]1O [Compound I-27, {(2R,3S,4R,5R)-5-[4-amino-3-(difluoromethoxy)-1H-pyrazolo[3,4-d]pyrimidin-1-yl]-3,4-dihydroxytetrahydrofuran-2-yl}methyl Sulfamate] | 20 to 50 | 78 | – | –
CC(C)(O)CSc1nn([C@@H]2O[C@H](COS(N)(=O)=O)[C@@H](O)[C@H]2O)c2ncnc(N)c12 [Compound I-28, [(2R,3S,4R,5R)-5-{4-amino-3-[(2-hydroxy-2-methylpropyl)sulfanyl]-1H-pyrazolo[3,4-d]pyrimidin-1-yl}-3,4-dihydroxytetrahydrofuran-2-yl]methyl sulfamate] | 50 to 100 | 71 | – | –
N#CCc1nn([C@@H]2O[C@H](COS(N)(=O)=O)[C@@H](O)[C@H]2O)c2ncnc(N)c12 [Compound I-29, {(2R,3S,4R,5R)-5-[4-amino-3-(cyanomethyl)-1H-pyrazolo[3,4-d]pyrimidin-1-yl]-3,4-dihydroxytetrahydrofuran-2-yl}methyl Sulfamate] | > 500 | 26 | – | –
Nc1ncnc2c1c(-c1nccs1)nn2[C@@H]1O[C@H](COS(N)(=O)=O)[C@@H](O)[C@H]1O [Compound I-30, {(2R,3S,4R,5R)-5-[4-amino-3-(1,3-thiazol-2-yl)-1H-pyrazolo[3,4-d]pyrimidin-1-yl]-3,4-dihydroxytetrahydrofuran-2-yl}methyl sulfamate] | > 500 | 15 | – | –
Cc1cccc(CSc2nn([C@@H]3O[C@H](COS(N)(=O)=O)[C@@H](O)[C@H]3O)c3ncnc(N)c23)c1 [Compound I-31, [(2R,3S,4R,5R)-5-{4-amino-3-[(3-methylbenzyl)sulfanyl]-1H-pyrazolo[3,4-d]pyrimidin-1-yl}-3,4-dihydroxytetrahydrofuran-2-yl]methyl sulfamate] | 20 to 50 | 85 | – | –
Nc1ncnc2c1c(SCc1ccc(OC(F)(F)F)cc1)nn2[C@@H]1O[C@H](COS(N)(=O)=O)[C@@H](O)[C@H]1O [Compound I-32, [(2R,3S,4R,5R)-5-(4-amino-3-{[4-(trifluoromethoxy)benzyl]sulfanyl}-1H-pyrazolo[3,4-d]pyrimidin-1-yl)-3,4-dihydroxytetrahydrofuran-2-yl]methyl sulfamate] | 20 to 50 | 73 | – | –
Nc1ncnc2c1c(SCc1ccc(C(F)(F)F)cc1)nn2[C@@H]1O[C@H](COS(N)(=O)=O)[C@@H](O)[C@H]1O [Compound I-33, [(2R,3S,4R,5R)-5-(4-amino-3-{[4-(trifluoromethyl)benzyl]sulfanyl}-1H-pyrazolo[3,4-d]pyrimidin-1-yl)-3,4-dihydroxytetrahydrofuran-2-yl]methyl sulfamate] | 20 to 50 | 82 | – | –
Nc1ncnc2c1c(Sc1ccc(Cl)cc1Cl)nn2[C@@H]1O[C@H](COS(N)(=O)=O)[C@@H](O)[C@H]1O [Compound I-34, [(2R,3S,4R,5R)-5-{4-amino-3-[(2,4-dichlorophenyl)sulfanyl]-1H-pyrazolo[3,4-d]pyrimidin-1-yl}-3,4-dihydroxytetrahydrofuran-2-yl]methyl sulfamate] | 50 to 100 | 70 | – | –
COCCSc1nn([C@@H]2O[C@H](COS(N)(=O)=O)[C@@H](O)[C@H]2O)c2ncnc(N)c12 [Compound I-35, [(2R,3S,4R,5R)-5-{4-amino-3-[(2-methoxyethyl)sulfanyl]-1H-pyrazolo[3,4-d]pyrimidin-1-yl}-3,4-dihydroxytetrahydrofuran-2-yl]methyl sulfamate] | 20 to 50 | 72 | – | –
Nc1ncnc2c1c(Sc1cn[nH]c1)nn2[C@@H]1O[C@H](COS(N)(=O)=O)[C@@H](O)[C@H]1O [Compound I-36, {(2R,3S,4R,5R)-5-[4-amino-3-(1H-pyrazol-4-ylsulfanyl)-1H-pyrazolo[3,4-d]pyrimidin-1-yl]-3,4-dihydroxytetrahydrofuran-2-yl}methyl sulfamate] | < 20 | – | 88 | –
Nc1ncnc2c1c(Oc1ccccc1)nn2[C@@H]1O[C@H](COS(N)(=O)=O)[C@@H](O)[C@H]1O [Compound I-37, [(2R,3S,4R,5R)-5-(4-amino-3-phenoxy-1H-pyrazolo[3,4-d]pyrimidin-1-yl)-3,4-dihydroxytetrahydrofuran-2-yl]methyl sulfamate] | > 500 | – | – | 7
COc1ccc(CSc2nn([C@@H]3O[C@H](COS(N)(=O)=O)[C@@H](O)[C@H]3O)c3ncnc(N)c23)cc1 [Compound I-38, [(2R,3S,4R,5R)-5-{4-amino-3-[(4-methoxybenzyl)sulfanyl]-1H-pyrazolo[3,4-d]pyrimidin-1-yl}-3,4-dihydroxytetrahydrofuran-2-yl]methyl sulfamate] | 20 to 50 | 84 | – | –
Cc1ccccc1CSc1nn([C@@H]2O[C@H](COS(N)(=O)=O)[C@@H](O)[C@H]2O)c2ncnc(N)c12 [Compound I-39, [(2R,3S,4R,5R)-5-{4-amino-3-[(2-methylbenzyl)sulfanyl]-1H-pyrazolo[3,4-d]pyrimidin-1-yl}-3,4-dihydroxytetrahydrofuran-2-yl]methyl sulfamate] | 20 to 50 | 75 | – | –
